The values that follow come from PMC8346139, “Synthesis of New Tricyclic 1,2-Thiazine Derivatives with Anti-Inflammatory Activity” (International Journal of Molecular Sciences, 2021).

“Also recorded” adds a separate entry of the source.

For data set [1], the system named is NHDF cells. The data set can be described thus: MTT viability assay. It counts as cell-based, Human. As to conditions: 24 h incubation; for Mitochondrial activity of NHDF cells: 10 µM and 50 µM, compared to control; for Mitochondrial activity of NHDF cells / Cytotoxic effect on NHDF cells: MTT; for Cytotoxic effect on NHDF cells: 10, 50 and 100 µM. The protocol:
The viability of the Normal Human Dermal Fibroblasts (NHDF) cells was assessed after 24 h incubation with 10, 50 and 100 µM tested compounds in MTT assay. […] The less than 30% decrease in culture viability was observed only in concentration of 100 µM for compound 6b in comparison to control (i.e., no cytotoxic potential of tested compound). […] Thus, all new compounds were directed to further research.
The study was carried out using the NHDF cell line obtained from ATCC (Manassas, VA, USA). These cells are commonly used to determine the cytotoxicity of new compounds. Cells were cultured at 37 °C in a humidified 5% CO2/95% air atmosphere incubator and passaged twice a week.
(§1) The 1,2-thiazine derivatives were dissolved in DMSO to a stock concentration of 10 mM. All prepared stock solutions were stored at −20 °C for up to 6 months. For the experiment, the compounds tested were used in the concentration range of 10, 50 and 100 μM. […] The abovementioned tested compounds were tested on NHDF cells.
The viability of the cells was assessed after 24 h incubation with 10–100 µM tested compounds in MTT assay. After incubation, cell culture with a 1 mg/mL solution of MTT for 2 h at 37 °C, the formazan crystals were dissolved in isopropanol. The plates were then shaken for 30 min, and the absorbance was measured at 570 nm using VariuScan microplate reader.

In data set [2] the test system is NHDF cells. The data set can be described thus: DCF-DA assay of reactive oxygen species (ROS). Type of data set: cell-based, Human. As to conditions: 1 h treatment; 10, 50 and 100 µM; compared to control. The method, then:
The level of reactive oxygen species (ROS) was evaluated in DCF-DA assay and nitric oxide (NO) in Griess assay, on NHDF cells. […] This increase may be due to the normal cellular activity due to the increased cell numbers, probably resulting from proliferation.
as §1
Levels of reactive oxygen species (ROS) and nitric oxide (NO) were evaluated in DCF-DA (2′,7′-dichlorofluorescein diacetate) and Griess (cat. No. G7921; Thermo Fisher Scientific, Waltham, MA, USA) assays, respectively. In these assays, the cells were treated with tested compounds only for 1 h. After that time, the 50 µL of supernatant were transferred into new plates to assess the NO level. The remaining supernatant was removed, the cell culture was washed, and the 25 µM DCF-DA solution was added for 1 h at 37 °C. […] The plates with DCF-DA solution were analyzed with the Varioskan LUX microplate reader (λex = 485 nm and λem = 535 nm). The NO level was analyzed by the measurement of the absorbance at 548 nm using VariuScan microplate reader.

For data set [3], the target named is T1, ovine COX-1 (Ovis aries, UniProt P05979).
T1 sequence (P05979 25-600): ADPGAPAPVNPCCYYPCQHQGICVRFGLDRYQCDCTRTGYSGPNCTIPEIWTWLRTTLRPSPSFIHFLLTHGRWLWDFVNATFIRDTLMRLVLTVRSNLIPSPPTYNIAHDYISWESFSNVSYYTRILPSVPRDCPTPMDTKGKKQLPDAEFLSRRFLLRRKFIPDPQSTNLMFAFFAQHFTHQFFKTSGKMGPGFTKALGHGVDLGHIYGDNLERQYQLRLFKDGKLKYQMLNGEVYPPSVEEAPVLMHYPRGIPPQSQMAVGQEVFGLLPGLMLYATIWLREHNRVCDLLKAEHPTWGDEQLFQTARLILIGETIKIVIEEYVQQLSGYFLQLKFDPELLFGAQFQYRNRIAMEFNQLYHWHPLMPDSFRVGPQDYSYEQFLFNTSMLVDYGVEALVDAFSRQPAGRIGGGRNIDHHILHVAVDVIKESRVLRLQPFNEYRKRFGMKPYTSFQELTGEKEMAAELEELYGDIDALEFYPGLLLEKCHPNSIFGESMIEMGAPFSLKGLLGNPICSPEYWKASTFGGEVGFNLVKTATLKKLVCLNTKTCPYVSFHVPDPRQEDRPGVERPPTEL
Description: COX colorimetric inhibitor screening assay, COX-1.
Description: (§2) The selectivity of the compounds for COX-1 or COX-2 was assessed by calculation of the IC50 ratios.
(§3) The compounds were dissolved in ethanol to get the final concentration of 100 µM. Each tested solution of compounds was transferred into a 96-well plate in three repetitions and then incubated for 2 min at RT with prepared reagents according to the manufacturing procedure. This assay measured the peroxidase component of COXs, which is evaluated as monitoring the oxidized form of N, N, N’, N’-tetramethyl-p-phenylenediamine (TMPD). The absorbance was measured using a VariuScan microplate reader at 590 nm. The data were calculated according to 3 steps. First, the average absorbance of all the samples was determined. Second, the absorbance of the background wells was subtracted from the absorbance of 100% of the starting COX-1 and COX-2 activity and the test compound wells.

In data set [4] the target is T2, human recombinant COX-2 (Homo sapiens, UniProt P35354).
T2 sequence (P35354 18-604): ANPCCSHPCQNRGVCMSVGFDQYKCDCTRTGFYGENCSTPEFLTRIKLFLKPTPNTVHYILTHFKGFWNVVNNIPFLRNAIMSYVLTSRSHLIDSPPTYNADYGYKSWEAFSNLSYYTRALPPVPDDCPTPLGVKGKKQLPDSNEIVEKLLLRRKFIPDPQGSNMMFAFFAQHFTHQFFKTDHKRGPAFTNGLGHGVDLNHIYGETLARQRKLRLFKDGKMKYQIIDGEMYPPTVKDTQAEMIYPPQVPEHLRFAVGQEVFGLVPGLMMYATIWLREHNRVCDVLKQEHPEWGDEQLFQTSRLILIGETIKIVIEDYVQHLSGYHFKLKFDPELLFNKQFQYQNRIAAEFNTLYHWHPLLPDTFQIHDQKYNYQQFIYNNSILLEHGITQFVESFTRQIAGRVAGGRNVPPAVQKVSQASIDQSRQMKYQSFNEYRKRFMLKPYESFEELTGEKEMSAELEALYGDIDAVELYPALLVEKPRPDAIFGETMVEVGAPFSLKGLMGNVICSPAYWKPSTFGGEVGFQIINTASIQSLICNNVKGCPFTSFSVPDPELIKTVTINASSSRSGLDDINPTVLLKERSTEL
Description: COX colorimetric inhibitor screening assay, COX-2. As to conditions: for COX-2/COX-1 selectivity compared with meloxicam: comparison of IC50 ratios; for COX-2 inhibition effect compared with meloxicam: comparison of IC50 values; for Ratio: COX-2/COX-1: ratio of IC50 values COX-2/COX-1.
Description: as §2, §3

Data set [5] in a line: Differential scanning calorimetry (DSC) of DPPC model membranes. Type of data set: physicochemical. As to conditions: pH 7.4, molar ratios 0.06–0.12.
Description: To investigate the interaction of the tricyclic 1,2-thiazine derivatives (Table 1) with model membranes, we used the differential scanning calorimetry (DSC) method. As a model of the phospholipid membrane, the multibilayers made of 1,2-dipalmitoyl-n-glycero-3-phosphatidylcholine (DPPC) in a buffer solution (pH 7.4) were used.
Tris-EDTA buffer solution (pH 7.4) and 1,2-dipalmitoyl-n-glycero-3-phosphatidyl- choline (DPPC) were purchased from Sigma-Aldrich, Merck KGaA, Darmstadt, Germany. None of the compounds studied were soluble in water, so their chloroform (P.P.H. STANLAB, Lublin, Poland, analytical grade) solutions were used for calorimetric experiments.
For each sample, 2 mg of phospholipid (DPPC) were dissolved in the appropriate amount of chloroform stock solution (5 mM) of the compounds studied (the compound: DPPC molar ratios in the samples were: 0.06, 0.08, 0.10, 0.12). The solvent was then evaporated under a stream of nitrogen gas. After that, the residual solvent was evacuated under vacuum (Rotary evaporator, Büchy Poland, Warsaw, Poland) for 2 h. In this process, the phospholipid was transferred onto the dry film on the inner surface of the Eppendorf tube. Samples were hydrated by 20 μL of Tris–EDTA buffer (pH 7.4). […] Then, the samples were transferred into aluminum sample pans of the Concavus® type (Netzsch GmbH & Co., Selb, Germany) and sealed. A pan of the same type, filled with 20 μL of Tris–EDTA buffer (pH 7.4), was employed as a reference. Measurements of the DPPC main phase transition were performed using the heat-flow measurement method at a heating rate of 1 °C per minute over a temperature range of 30–50 °C in a nitrogen dynamic atmosphere (25 mL/min). Data were analyzed off-line using Netzsch Proteus® 7.1.0 (Netzsch GmbH & Co., Selb, Germany) analysis software. The transition enthalpies were stated in [J/g]. The measured heat was normalized per gram of lipid. […] All samples were weighed on a Sartorius CPA225D-0CE analytical balance (Sartorius AG, Gottingen, Germany) with a resolution of 0.01 mg.

As for `O=C(C1=C(O)c2ccccc2S(=O)(=O)N1)c1ccccc1` [Compound 4a], in data set [1], the “Mitochondrial activity of NHDF cells” value is on record as “statistically significant increase” and the “Cytotoxic effect on NHDF cells” value is listed as “no cytotoxic effect was observed”. Further, the “Level of reactive oxygen species (ROS)” value in data set [2] is given as “statistically significant increase”. In addition, in data set [3], the 50% inhibitory concentration (IC50) was 91.2 µM. For the same molecule, in data set [4], the half-inhibitory concentration (IC50) came to 54.6 µM, the “COX-2/COX-1 selectivity compared with meloxicam” value (shortened to “COX-2/COX-1 selectivity”) is reported as “higher COX-2/COX-1 selectivity than for meloxicam”, the “COX-2 inhibition effect compared with meloxicam” value is recorded as “stronger COX-2 inhibition effect than the meloxicam” and the “Ratio: COX-2/COX-1” value amounted to 0.6.
In the case of `O=C(C1=C(O)c2ccccc2S(=O)(=O)N1)c1ccc(Cl)cc1` [Compound 4c], in data set [1], the “Mitochondrial activity of NHDF cells” value is “statistically significant increase” and the “Cytotoxic effect on NHDF cells” value is “no cytotoxic effect was observed”. The IC50 in data set [3] is 89 µM. Also, in data set [4], the IC50 stood at 55.9 µM, the “COX-2/COX-1 selectivity” value is “higher COX-2/COX-1 selectivity than for meloxicam”, the “COX-2 inhibition effect compared with meloxicam” value was “stronger COX-2 inhibition effect than the meloxicam” and the “Ratio: COX-2/COX-1” value is listed as 0.63.
`Cc1ccc(C(=O)C2=C(O)c3ccccc3S(=O)(=O)N2)cc1` [Compound 4d] gave an IC50 in data set [3] of 89.3 µM. Moreover, in data set [4], the IC50 was 55.3 µM, the “COX-2/COX-1 selectivity” value is listed as “higher COX-2/COX-1 selectivity than for meloxicam”, the “COX-2 inhibition effect compared with meloxicam” value is recorded as “stronger COX-2 inhibition effect than the meloxicam” and the “Ratio: COX-2/COX-1” value came to 0.62.
As to `O=C1C2=C(c3ccccc3)OCCN2S(=O)(=O)c2ccccc21` [Compound 5, 6,6-dioxo-1-phenyl-3,4-dihydro-[1,4] oxazino [4,3-b][1,2]benzothiazin-11-one], the melting point is 182 to 183 °C. This molecule showed a concentration for half-maximal inhibition (IC50) in data set [3] of 66.1 µM. Also, in data set [4], the half-inhibitory concentration (IC50) is 56.9 µM, the “COX-2 inhibition effect compared with meloxicam” value was “stronger COX-2 inhibition effect than the meloxicam” and the “Ratio: COX-2/COX-1” value is given as 0.86.
In turn, `O=C1C2=C(c3ccccc3)OCCCN2S(=O)(=O)c2ccccc21` [Compound 6a, 7,7-dioxo-1-phenyl-4,5-dihydro-3H-[1,4]oxazepino[4,3-b][1,2]benzothiazin-12-one] had a melting point of 171 to 172 °C. Moreover, 106 µM corresponded to half-maximal inhibition in data set [3] (IC50). Moreover, in data set [4], the half-inhibitory concentration (IC50) amounted to 89.9 µM and the “Ratio: COX-2/COX-1” value turned out to be 0.85.
Consider `O=C1C2=C(c3ccc(Br)cc3)OCCCN2S(=O)(=O)c2ccccc21` [Compound 6b, 1-(4-bromophenyl)-7,7-dioxo-4,5-dihydro-3H-[1,4]oxazepino[4,3-b][1,2]benzothiazin-12-one], for which the “Decrease in culture viability” value in data set [1] (100 µM, in comparison to control) is “less than 30%”. For the same molecule, the 50% inhibitory concentration (IC50) in data set [3] turned out to be 86.9 µM; in data set [4], 95.1 µM.
For the molecule `O=C1C2=C(c3ccc(Cl)cc3)OCCCN2S(=O)(=O)c2ccccc21` [Compound 6c, 1-(4-chlorophenyl)-7,7-dioxo-4,5-dihydro-3H-[1,4]oxazepino[4,3-b][1,2]benzothiazin-12-one], the melting point is 168 to 170 °C. Besides, in data set [5], the “Effect on DPPC gel-liquid crystalline phase transition parameters (Tm, T½, ΔH)” value (shortened to “Effect … (Tm, T½, ΔH)”) was “most pronounced effects”. The “Mitochondrial activity of NHDF cells” value in data set [1] is reported as “statistically significant increase”. The molecule further registered a half-inhibitory concentration (IC50) in data set [3] of 89.8 µM. Also, in data set [4], the IC50 worked out at 94.1 µM and the “Ratio: COX-2/COX-1” value came out at 1.05.
`Cc1ccc(C2=C3C(=O)c4ccccc4S(=O)(=O)N3CCCO2)cc1` [Compound 6d, 7,7-dioxo-1-(p-tolyl)-4,5-dihydro-3H-[1,4]oxazepino[4,3-b][1,2]benzothiazin-12-one] registered a melting point of 204 to 206 °C. In addition, in data set [5], the “Effect … (Tm, T½, ΔH)” value is “most pronounced effects”. The same molecule showed an IC50 in data set [3] of 126 µM. In data set [4], the IC50 is 92.9 µM and the “Ratio: COX-2/COX-1” value is recorded as 0.74.
As for `COc1ccc(C2=C3C(=O)c4ccccc4S(=O)(=O)N3CCCO2)cc1` [Compound 6e, 1-(4-methoxyphenyl)-7,7-dioxo-4,5-dihydro-3H-[1,4]oxazepino[4,3-b][1,2]benzothiazin-12-one], the melting point lay in the range of 144 to 145 °C. Besides, the “Effect … (Tm, T½, ΔH)” value in data set [5] is listed as “most pronounced effects”. Besides, the IC50 in data set [3] came to 115 µM. Moreover, in data set [4], the IC50 worked out at 56.9 µM, the “COX-2/COX-1 selectivity” value is recorded as “higher COX-2/COX-1 selectivity than for meloxicam; also recorded: most selective inhibitor of COX-2”, the “COX-2 inhibition effect compared with meloxicam” value is listed as “stronger COX-2 inhibition effect than the meloxicam” and the “Ratio: COX-2/COX-1” value came out at 0.49.
As for `O=C1C2=C(c3ccccc3)OCCCCN2S(=O)(=O)c2ccccc21` [Compound 7, 8,8-dioxo-1-phenyl-3,4,5,6-tetrahydro-[1,4]oxazocino[4,3-b][1,2]benzothiazin-13-one], the melting point fell in the range of 198 to 201 °C. Further, in data set [3], inhibition was half-maximal at 86.1 µM (IC50). Moreover, in data set [4], the IC50 is 54 µM, the “COX-2/COX-1 selectivity” value is on record as “higher COX-2/COX-1 selectivity than for meloxicam”, the “COX-2 inhibition effect compared with meloxicam” value is “stronger COX-2 inhibition effect than the meloxicam” and the “Ratio: COX-2/COX-1” value came out at 0.63.
